Reference: PubChem BioAssay (NCI)
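How tested: cells in 96-well plates exposed to compound for 48 hours at five concentrations. GI50 is the concentration that inhibits growth by half. TGI denotes the concentration required for complete inhibition of growth.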

Columns and labels:
Assay in all cases: growth of human tumour cells (NCI), 48 h
[1] = test system: KM12 colon
[2] = test system: SK-MEL-2 melanoma
[3] = test system: MDA-MB-435
[4] = test system: SF-539 CNS
[5] = test system: ACHN renal
[6] = test system: UO-31 renal
[7] = test system: SK-MEL-28 melanoma
[8] = test system: HL-60(TB) leukemia

With Cc1ccccc1NC(=O)c1sc2nc3c(cc2c1N)C(=O)CCC3 the GI50 [1] was 1.69 µM, the TGI [1] was > 100 µM and the GI50 [2] was 0.548 µM. The TGI [2] was > 100 µM, the GI50 [3] was 0.331 µM and the TGI [3] was 1.98 µM. For the same compound, the GI50 [4] was 2.13 µM, the TGI [4] was 8.1 µM and the GI50 [5] was 15.8 µM. The TGI [5] was > 100 µM, the GI50 [6] was 34.4 µM and the TGI [6] was > 100 µM. The GI50 [7] was 1.83 µM, the TGI [7] was > 100 µM and the GI50 [8] was 3.1 µM. The TGI [8] was > 100 µM.
With Cc1ccc(-n2c(-c3ccc(Cl)cc3)cs/c2=N\NC(=O)COc2n[nH]c(=O)c3ccccc23)cc1 the GI50 [1] was > 100 µM, the TGI [1] was > 100 µM and the GI50 [2] was > 100 µM. The TGI [2] was > 100 µM, the GI50 [3] was > 100 µM and the TGI [3] was > 100 µM. For the same compound, the GI50 [4] was 19.6 µM, the TGI [4] was 71.8 µM and the GI50 [5] was > 100 µM. For the same compound, the TGI [5] was > 100 µM, the GI50 [6] was > 100 µM and the TGI [6] was > 100 µM. For the same compound, the GI50 [7] was > 100 µM, the TGI [7] was > 100 µM and the GI50 [8] was > 100 µM. For the same compound, the TGI [8] was > 100 µM.
For CCCCC#Cc1cccc(=O)o1, the GI50 [1] was 37.1 µM, the TGI [1] was > 100 µM and the GI50 [2] was 20.8 µM. For the same compound, the TGI [2] was > 100 µM, the GI50 [3] was 15 µM and the TGI [3] was > 100 µM. The GI50 [4] was > 100 µM, the TGI [4] was > 100 µM and the GI50 [6] was 20.8 µM. The TGI [6] was > 100 µM, the GI50 [7] was 18.3 µM and the TGI [7] was > 100 µM. For the same compound, the GI50 [8] was 1.86 µM and the TGI [8] was > 100 µM.
COc1cc2c3c(n(C)c(=O)c2cc1OC)-c1cc2c(cc1/C3=C\[C@@H](N)CCCCN)OCO2 was tested, and the GI50 [1] was 1.58 µM, the TGI [1] was > 100 µM and the GI50 [2] was 13.2 µM. For the same compound, the TGI [2] was > 100 µM, the GI50 [3] was 2.81 µM and the TGI [3] was > 100 µM. For the same compound, the GI50 [4] was 0.335 µM, the TGI [4] was 12.5 µM and the GI50 [5] was 2.46 µM. For the same compound, the TGI [5] was > 41.4 µM, the GI50 [6] was 8 µM and the TGI [6] was > 100 µM. For the same compound, the GI50 [7] was 1.39 µM, the TGI [7] was > 100 µM and the GI50 [8] was 2.15 µM. The TGI [8] was 8.73 µM.
C[C@@]12CCC[C@@](C)(C(=O)O)C1CC[C@@]13CC(=O)[C@@](CO)(CCC12)C3 (some centres undefined) was tested, and the GI50 [1] was > 100 µM, the TGI [1] was > 100 µM and the GI50 [2] was > 100 µM. The TGI [2] was > 100 µM, the GI50 [3] was > 100 µM and the TGI [3] was > 100 µM. The GI50 [4] was > 100 µM, the TGI [4] was > 100 µM and the GI50 [5] was > 100 µM. For the same compound, the TGI [5] was > 100 µM, the GI50 [6] was > 100 µM and the TGI [6] was > 100 µM. For the same compound, the GI50 [7] was > 100 µM, the TGI [7] was > 100 µM and the GI50 [8] was > 100 µM. For the same compound, the TGI [8] was > 100 µM.
With CS(=O)(=O)CS(=O)CS(=O)CS(=O)CC(NC(=O)CCC(N)C(=O)O)C(=O)O (centres undefined) the TGI [1] was > 100 µM, the TGI [2] was > 100 µM and the TGI [3] was > 100 µM. The TGI [4] was > 100 µM, the TGI [5] was > 100 µM and the TGI [6] was > 100 µM. The TGI [7] was > 100 µM and the TGI [8] was > 100 µM.
COC(=O)[C@]12CC[C@@H](C)[C@H](C)[C@@H]1C1=CC[C@@H]3[C@@]4(C)C=C(O)C(=O)C(C)=C4CC[C@@]3(C)[C@]1(C)CC2 was tested, and the GI50 [1] was 7.72 µM, the TGI [1] was 21.8 µM and the GI50 [2] was 14.6 µM. The TGI [2] was 31.6 µM, the GI50 [3] was 13.8 µM and the TGI [3] was 28.2 µM. It also gave a GI50 [4] of 12.2 µM, a TGI [4] of 27.2 µM and a GI50 [5] of 5.4 µM. The TGI [5] was 19.3 µM, the GI50 [6] was 11.6 µM and the TGI [6] was 26.3 µM. It also gave a GI50 [7] of 15.8 µM, a TGI [7] of 34 µM and a GI50 [8] of 13.7 µM. It also gave a TGI [8] of 35.7 µM.
In the case of N#CC(=S)Nc1ccc(F)cc1, the TGI [1] is reported as > 100 µM, the TGI [2] is reported as > 100 µM and the TGI [3] is reported as > 100 µM. The TGI [4] was > 100 µM, the TGI [5] was > 100 µM and the TGI [7] was > 100 µM. For the same compound, the TGI [8] was 91.3 µM.
Work on O=C(Nc1ccccc1F)c1ccc(NC2=C(Cl)C(=O)N(Cc3ccccc3)C2=O)cc1 yielded a GI50 [1] of 14.8 µM, a TGI [1] of 34.3 µM and a GI50 [2] of 6.84 µM. It also gave a TGI [2] of 18.4 µM, a GI50 [3] of 3.07 µM and a TGI [3] of 11.5 µM. The GI50 [4] was 6.18 µM, the TGI [4] was 18 µM and the GI50 [5] was 15.1 µM. The TGI [5] was 28.4 µM, the GI50 [6] was 1.86 µM and the TGI [6] was 3.6 µM. It also gave a GI50 [7] of 3.88 µM, a TGI [7] of 13.5 µM and a GI50 [8] of 1.72 µM. The TGI [8] was 3.36 µM.
C=C1CO[C@@H]2C[C@@H]1CCC1(C)OC1CC/C(C)=C/CC[C@@]2(C)O (some centres undefined) showed a GI50 [1] of 17.7 µM, a TGI [1] of 42 µM and a GI50 [2] of 43.2 µM. The TGI [2] was > 84.6 µM, the GI50 [3] was 18.5 µM and the TGI [3] was 42.2 µM. It also gave a GI50 [4] of 16.1 µM, a TGI [4] of 31.3 µM and a GI50 [5] of 16.7 µM. The TGI [5] was 31.4 µM, the GI50 [6] was 15.1 µM and the TGI [6] was 29.5 µM. For the same compound, the GI50 [7] was > 89.6 µM and the TGI [7] was > 100 µM.
In the case of O=C1C=C(Nc2nc(C(=O)O)cc(=O)[nH]2)c2ccccc2C1=O, the TGI [1] is reported as > 100 µM, the TGI [2] is reported as > 100 µM and the TGI [3] is reported as > 100 µM. For the same compound, the TGI [4] was > 100 µM, the TGI [5] was > 100 µM and the TGI [6] was > 100 µM. For the same compound, the TGI [7] was > 100 µM and the TGI [8] was > 100 µM.
For CC1(C)CC[C@]2(C(=O)O)CC[C@]3(C)[C@H](CC[C@@H]4[C@@]5(C)CCC(=O)C(C)(C)[C@@H]5CC[C@]43C)[C@H]2[C@H]1OC(=O)C(F)(F)F, the GI50 [1] was 10.4 µM, the TGI [1] was 24.4 µM and the GI50 [2] was 14.1 µM. The TGI [2] was 30.9 µM, the GI50 [3] was 10.6 µM and the TGI [3] was 26.9 µM. It also gave a GI50 [4] of 5.34 µM, a TGI [4] of 18.1 µM and a GI50 [5] of 13.3 µM. It also gave a TGI [5] of 26.1 µM, a GI50 [6] of 13.7 µM and a TGI [6] of 27 µM. It also gave a GI50 [7] of 13.6 µM, a TGI [7] of 28.2 µM and a GI50 [8] of 3.16 µM. It also gave a TGI [8] of 13.6 µM.
With CCOC(=O)c1cnc2c(cnn2CC)c1NN=C(C)C the GI50 [1] was 67.1 µM, the TGI [1] was > 100 µM and the GI50 [2] was 53.5 µM. The TGI [2] was > 100 µM, the GI50 [3] was 78.2 µM and the TGI [3] was > 100 µM. The GI50 [4] was 74.9 µM, the TGI [4] was > 100 µM and the GI50 [5] was 24 µM. The TGI [5] was > 100 µM, the GI50 [6] was 23.2 µM and the TGI [6] was > 100 µM. For the same compound, the GI50 [7] was > 100 µM, the TGI [7] was > 100 µM and the GI50 [8] was 59 µM. For the same compound, the TGI [8] was > 100 µM.
Nc1nc(Nc2ccc3c(c2)CCC(N2CCCC2)CC3)nn1-c1cc2c(nn1)-c1ccccc1CCC2 (centres undefined) gave a GI50 [1] of 1.02 µM, a TGI [1] of 2.73 µM and a GI50 [2] of 1.04 µM. The TGI [2] was 2.53 µM, the GI50 [3] was 1.32 µM and the TGI [3] was 2.74 µM. The GI50 [4] was 0.787 µM, the TGI [4] was 2.1 µM and the GI50 [5] was 0.346 µM. For the same compound, the TGI [5] was 1.59 µM, the GI50 [6] was 0.668 µM and the TGI [6] was 2.13 µM. It also gave a GI50 [7] of 1.61 µM, a TGI [7] of 3.01 µM and a GI50 [8] of 1.01 µM. The TGI [8] was 2.75 µM.
With COc1cc(/C=C/C(=O)c2cc(OC)c(OC)c(OC)c2)cc(OC)c1OC the GI50 [1] was 1.98 µM, the TGI [1] was 4.84 µM and the GI50 [3] was 2.28 µM. The TGI [3] was 8.11 µM, the GI50 [4] was 3.21 µM and the TGI [4] was 12.9 µM. It also gave a GI50 [5] of 4.73 µM, a TGI [5] of 46.8 µM and a GI50 [6] of 2.05 µM. For the same compound, the TGI [6] was 12.1 µM, the GI50 [7] was 8.57 µM and the TGI [7] was 24.3 µM. For the same compound, the GI50 [8] was 1.21 µM and the TGI [8] was 11.2 µM.
